Tests used:
Histone deacetylase 5 = Histone deacetylase 5 (Homo sapiens, UniProt Q9UQL6); assay: Inhibition of recombinant full length human HDAC5 expressed in baculovirus infected Sf9 cells using FAM-RHKK-TFAc as substrate incubated for 3 hrs by electrophoretic mobility shift assay
[1] = target: T1, Polyamine deacetylase HDAC10 (Homo sapiens, UniProt Q969S8); assay: Inhibition of recombinant full length human HDAC10 expressed in baculovirus infected Sf9 cells using FAM-RHKK-Ac as substrate incubated for 17 hrs by electrophoretic mobility shift assay
T1 sequence (Q969S8 whole entry): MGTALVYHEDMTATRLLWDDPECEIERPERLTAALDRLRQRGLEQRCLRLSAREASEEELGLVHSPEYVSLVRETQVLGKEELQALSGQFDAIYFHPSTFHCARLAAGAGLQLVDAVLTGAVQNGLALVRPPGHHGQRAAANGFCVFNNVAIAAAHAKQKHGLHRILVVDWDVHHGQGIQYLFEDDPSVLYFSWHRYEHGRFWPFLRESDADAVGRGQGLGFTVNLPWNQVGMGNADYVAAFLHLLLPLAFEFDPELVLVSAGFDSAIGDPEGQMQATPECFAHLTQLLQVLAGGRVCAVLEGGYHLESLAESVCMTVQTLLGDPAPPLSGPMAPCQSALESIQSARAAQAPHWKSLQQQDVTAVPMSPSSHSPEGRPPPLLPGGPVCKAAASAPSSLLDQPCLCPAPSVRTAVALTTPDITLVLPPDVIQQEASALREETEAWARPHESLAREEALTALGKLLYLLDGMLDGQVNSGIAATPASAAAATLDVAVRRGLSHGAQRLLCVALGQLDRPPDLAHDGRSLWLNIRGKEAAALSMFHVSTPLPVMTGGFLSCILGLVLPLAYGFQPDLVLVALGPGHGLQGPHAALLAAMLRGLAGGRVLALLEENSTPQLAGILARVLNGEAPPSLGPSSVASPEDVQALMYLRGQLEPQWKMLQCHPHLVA

Histone deacetylase 9 = Histone deacetylase 9 (Homo sapiens, UniProt Q9UKV0); assay: Inhibition of recombinant human HDAC9 (604-1066 residues) expressed in baculovirus infected Sf9 cells using FAM-RHKK-TFAc as substrate incubated for 3 hrs by electrophoretic mobility shift assay
Sequence of Histone deacetylase 9 (Q9UKV0 whole entry, the tested form may be a part): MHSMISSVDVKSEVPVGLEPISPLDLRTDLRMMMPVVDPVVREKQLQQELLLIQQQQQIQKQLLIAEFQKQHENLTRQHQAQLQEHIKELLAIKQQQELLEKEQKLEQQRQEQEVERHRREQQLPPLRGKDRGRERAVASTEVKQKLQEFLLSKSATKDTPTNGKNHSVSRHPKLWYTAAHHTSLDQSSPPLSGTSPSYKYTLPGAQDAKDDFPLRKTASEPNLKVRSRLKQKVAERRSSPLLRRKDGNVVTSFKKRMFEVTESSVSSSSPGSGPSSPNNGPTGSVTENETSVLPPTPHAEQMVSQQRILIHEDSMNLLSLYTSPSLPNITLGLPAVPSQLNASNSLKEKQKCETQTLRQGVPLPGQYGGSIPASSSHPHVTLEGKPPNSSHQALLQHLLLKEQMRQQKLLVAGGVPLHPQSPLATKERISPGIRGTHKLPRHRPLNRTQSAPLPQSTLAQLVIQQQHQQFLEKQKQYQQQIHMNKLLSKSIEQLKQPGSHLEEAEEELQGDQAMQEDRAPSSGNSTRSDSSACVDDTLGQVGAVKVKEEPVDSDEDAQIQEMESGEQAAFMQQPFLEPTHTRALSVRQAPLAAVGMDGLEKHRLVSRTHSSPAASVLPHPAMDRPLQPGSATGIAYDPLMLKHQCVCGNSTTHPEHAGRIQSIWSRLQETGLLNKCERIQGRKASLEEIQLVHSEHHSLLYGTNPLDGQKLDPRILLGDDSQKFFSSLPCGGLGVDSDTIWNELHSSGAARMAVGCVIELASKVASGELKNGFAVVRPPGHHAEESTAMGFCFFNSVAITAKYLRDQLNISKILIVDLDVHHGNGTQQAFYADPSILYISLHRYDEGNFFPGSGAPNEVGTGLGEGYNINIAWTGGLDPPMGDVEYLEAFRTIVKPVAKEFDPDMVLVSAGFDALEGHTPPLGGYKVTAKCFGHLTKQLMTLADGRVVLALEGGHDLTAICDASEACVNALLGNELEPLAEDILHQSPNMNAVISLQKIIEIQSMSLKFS

[2] = target: T2, Protein deacetylase HDAC6 (Homo sapiens, UniProt Q9UBN7); assay: Inhibition of recombinant full length human HDAC6 expressed in baculovirus infected Sf9 cells using FAM-RHKK-Ac as substrate incubated for 5 hrs by electrophoretic mobility shift assay
T2 sequence (Q9UBN7 whole entry): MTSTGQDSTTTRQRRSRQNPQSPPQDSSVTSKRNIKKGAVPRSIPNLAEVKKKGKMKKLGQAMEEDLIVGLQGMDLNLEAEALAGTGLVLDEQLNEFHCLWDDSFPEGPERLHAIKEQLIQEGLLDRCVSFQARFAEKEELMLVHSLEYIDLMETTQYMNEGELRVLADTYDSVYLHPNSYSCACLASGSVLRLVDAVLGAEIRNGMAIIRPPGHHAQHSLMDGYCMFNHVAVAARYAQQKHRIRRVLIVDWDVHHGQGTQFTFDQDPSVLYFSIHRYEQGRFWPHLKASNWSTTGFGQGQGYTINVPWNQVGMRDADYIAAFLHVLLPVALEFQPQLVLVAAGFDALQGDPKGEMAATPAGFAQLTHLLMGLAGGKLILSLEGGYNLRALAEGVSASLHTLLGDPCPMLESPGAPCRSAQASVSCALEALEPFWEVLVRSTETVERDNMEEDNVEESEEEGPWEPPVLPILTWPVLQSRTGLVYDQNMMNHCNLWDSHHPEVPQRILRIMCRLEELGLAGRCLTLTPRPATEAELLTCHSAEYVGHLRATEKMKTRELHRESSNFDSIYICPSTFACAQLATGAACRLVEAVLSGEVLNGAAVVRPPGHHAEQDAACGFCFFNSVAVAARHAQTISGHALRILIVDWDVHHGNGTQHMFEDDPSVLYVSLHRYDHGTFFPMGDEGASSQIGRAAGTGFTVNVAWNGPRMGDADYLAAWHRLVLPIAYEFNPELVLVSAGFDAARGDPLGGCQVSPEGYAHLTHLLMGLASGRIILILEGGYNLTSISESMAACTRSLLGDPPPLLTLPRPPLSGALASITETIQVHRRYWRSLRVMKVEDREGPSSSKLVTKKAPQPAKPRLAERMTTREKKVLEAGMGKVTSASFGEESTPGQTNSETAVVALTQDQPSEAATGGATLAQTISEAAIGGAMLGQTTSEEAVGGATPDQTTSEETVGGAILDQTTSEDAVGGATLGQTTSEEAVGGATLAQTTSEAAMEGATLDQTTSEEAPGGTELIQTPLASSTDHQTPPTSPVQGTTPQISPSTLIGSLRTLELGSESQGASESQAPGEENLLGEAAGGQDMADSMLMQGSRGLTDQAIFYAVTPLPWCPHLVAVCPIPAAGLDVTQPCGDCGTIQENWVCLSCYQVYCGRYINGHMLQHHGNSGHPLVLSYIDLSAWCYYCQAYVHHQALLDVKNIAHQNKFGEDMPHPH

Histone deacetylase 3 = Histone deacetylase 3 (Homo sapiens, UniProt O15379); assay: Inhibition of recombinant full length human HDAC3 expressed in baculovirus infected Sf9 cells using FAM-RHKK-Ac as substrate incubated for 3 hrs by electrophoretic mobility shift assay
Sequence of Histone deacetylase 3 (O15379 whole entry): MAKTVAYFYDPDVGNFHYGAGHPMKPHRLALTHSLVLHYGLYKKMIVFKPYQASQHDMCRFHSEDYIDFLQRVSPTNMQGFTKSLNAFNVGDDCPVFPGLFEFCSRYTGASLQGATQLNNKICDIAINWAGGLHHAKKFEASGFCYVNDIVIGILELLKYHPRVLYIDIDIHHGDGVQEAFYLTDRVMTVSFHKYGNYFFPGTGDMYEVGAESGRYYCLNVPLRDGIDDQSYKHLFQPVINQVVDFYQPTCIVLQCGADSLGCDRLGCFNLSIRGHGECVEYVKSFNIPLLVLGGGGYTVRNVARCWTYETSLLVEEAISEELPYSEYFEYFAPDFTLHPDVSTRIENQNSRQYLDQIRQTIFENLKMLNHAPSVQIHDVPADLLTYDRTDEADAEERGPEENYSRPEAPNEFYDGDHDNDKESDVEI

MDA-MB-231 = assay: Cytotoxicity against human MDA-MB-231 cells assessed as reduction in cell viability incubated for 72 hrs by cell-titer blue assay; type: functional, cell-based; conditions: MDA-MB-231, 72 h
[3] = Cytotoxicity against human MRC9 cells assessed as reduction in cell viability incubated for 72 hrs by cell-titer blue assay; type: cell-based; conditions: MRC9, 72 h
Histone deacetylase 8 = target: T3, Histone deacetylase 8 (Homo sapiens, UniProt Q9BY41); assay: Inhibition of recombinant full length human HDAC8 expressed in baculovirus infected Sf9 cells using FAM-RHKK-TFAc as substrate incubated for 3 hrs by electrophoretic mobility shift assay
T3 sequence (Q9BY41 whole entry): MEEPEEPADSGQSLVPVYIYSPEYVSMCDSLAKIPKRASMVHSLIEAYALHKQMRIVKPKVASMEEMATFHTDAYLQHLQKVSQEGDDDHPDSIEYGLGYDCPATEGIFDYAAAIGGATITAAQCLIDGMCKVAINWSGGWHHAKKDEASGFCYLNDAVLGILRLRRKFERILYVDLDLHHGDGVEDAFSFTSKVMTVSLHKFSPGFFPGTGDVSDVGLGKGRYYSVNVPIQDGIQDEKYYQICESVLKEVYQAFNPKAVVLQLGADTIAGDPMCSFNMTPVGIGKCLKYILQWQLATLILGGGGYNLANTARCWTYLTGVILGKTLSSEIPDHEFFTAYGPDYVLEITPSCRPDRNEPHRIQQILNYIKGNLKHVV

Histone deacetylase 11 = target: T4, Histone deacetylase 11 (Homo sapiens, UniProt Q96DB2); assay: Inhibition of recombinant full length human HDAC11 expressed in baculovirus infected Sf9 cells using FAM-RHKK-TFAc as substrate incubated for 17 hrs by electrophoretic mobility shift assay
T4 sequence (Q96DB2 whole entry): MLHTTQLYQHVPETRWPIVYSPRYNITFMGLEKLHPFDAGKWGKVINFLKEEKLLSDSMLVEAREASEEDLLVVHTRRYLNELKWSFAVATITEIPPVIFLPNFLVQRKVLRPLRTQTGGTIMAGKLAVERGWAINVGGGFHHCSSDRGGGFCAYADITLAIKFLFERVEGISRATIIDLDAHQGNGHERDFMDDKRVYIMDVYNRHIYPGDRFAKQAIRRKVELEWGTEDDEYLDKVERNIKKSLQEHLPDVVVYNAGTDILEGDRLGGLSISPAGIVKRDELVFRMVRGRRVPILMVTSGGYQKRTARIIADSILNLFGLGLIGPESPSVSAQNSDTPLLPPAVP

MOLM-13 = assay: Cytotoxicity against human MOLM13 cells assessed as reduction in cell viability incubated for 72 hrs by cell-titer blue assay; type: functional, cell-based; conditions: MOLM-13, 72 h
MV4-11 = assay: Cytotoxicity against human MV4-11 cells assessed as reduction in cell viability incubated for 72 hrs by cell-titer blue assay; type: functional, cell-based; conditions: MV4-11, 72 h
MDA-MB-468 = assay: Cytotoxicity against human MDA-MB-468 cells assessed as reduction in cell viability incubated for 72 hrs by cell-titer blue assay; type: functional, cell-based; conditions: MDA-MB-468, 72 h
[4] = target: T2, Protein deacetylase HDAC6; assay: Inhibition of recombinant full length human HDAC6 expressed in baculovirus infected Sf9 cells assessed as inhibitory constant using FAM-RHKK-Ac as substrate incubated for 5 hrs by electrophoretic mobility shift assay
[5] = Efflux ratio of apparent permeability in human Caco2 cells incubated for 2 hrs by LC/MS analysis; type: ADME, cell-based, Caco-2; conditions: Caco-2

Sequence of Histone deacetylase 5 (Q9UQL6 whole entry): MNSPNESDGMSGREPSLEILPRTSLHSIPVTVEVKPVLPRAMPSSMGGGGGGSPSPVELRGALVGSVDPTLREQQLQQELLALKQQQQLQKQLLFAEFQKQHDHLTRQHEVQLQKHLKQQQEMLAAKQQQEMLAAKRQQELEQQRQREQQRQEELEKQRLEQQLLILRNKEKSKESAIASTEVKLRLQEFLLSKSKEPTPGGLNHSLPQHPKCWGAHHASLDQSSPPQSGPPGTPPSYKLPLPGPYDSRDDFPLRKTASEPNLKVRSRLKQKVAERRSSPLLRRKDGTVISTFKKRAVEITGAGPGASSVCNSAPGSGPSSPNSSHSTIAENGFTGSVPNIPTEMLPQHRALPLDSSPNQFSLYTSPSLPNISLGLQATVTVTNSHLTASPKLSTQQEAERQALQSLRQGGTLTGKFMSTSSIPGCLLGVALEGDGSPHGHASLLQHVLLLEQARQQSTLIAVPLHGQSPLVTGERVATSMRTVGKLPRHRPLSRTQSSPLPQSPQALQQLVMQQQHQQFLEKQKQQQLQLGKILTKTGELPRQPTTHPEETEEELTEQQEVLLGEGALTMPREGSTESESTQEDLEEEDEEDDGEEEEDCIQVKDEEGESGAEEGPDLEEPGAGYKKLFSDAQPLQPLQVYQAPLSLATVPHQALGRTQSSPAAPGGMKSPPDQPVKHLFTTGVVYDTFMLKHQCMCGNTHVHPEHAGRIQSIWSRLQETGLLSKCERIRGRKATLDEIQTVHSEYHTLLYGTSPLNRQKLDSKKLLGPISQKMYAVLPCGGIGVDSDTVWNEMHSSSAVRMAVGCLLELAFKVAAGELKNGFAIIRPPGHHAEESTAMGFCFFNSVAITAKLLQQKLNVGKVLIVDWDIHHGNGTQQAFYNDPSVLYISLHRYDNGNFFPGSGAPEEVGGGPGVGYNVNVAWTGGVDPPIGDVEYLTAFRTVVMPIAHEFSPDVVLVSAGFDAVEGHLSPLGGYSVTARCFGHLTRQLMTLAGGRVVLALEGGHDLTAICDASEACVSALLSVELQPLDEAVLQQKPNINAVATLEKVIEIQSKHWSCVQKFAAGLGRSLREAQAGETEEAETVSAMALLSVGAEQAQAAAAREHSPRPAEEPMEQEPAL

Cn1cc(CNCC2CCN(c3ncc(C(=O)NO)cn3)CC2)c2ccccc21 [QUISINOSTAT]
IC50 (Histone deacetylase 5): 5.95 nM
IC50 [1]: 1.96 nM
IC50 (Histone deacetylase 9): 6.7 nM

CC(C)(C)OC(=O)N(Cc1ccc(C(C)(C)C)cc1)c1ccc(C(=O)NO)cc1
IC50 [2]: 28.2 nM
IC50 (Histone deacetylase 3): 374 nM
IC50 (MDA-MB-231): > 25000 nM
IC50 [3]: 9490 nM
IC50 (Histone deacetylase 8): 635 nM
IC50 (Histone deacetylase 11): 837 nM
IC50 (MOLM-13): 10300 nM
IC50 (MV4-11): 3120 nM
IC50 (MDA-MB-468): > 25000 nM
Ki [4]: 201 nM

CN(C(=O)CN(Cc1c(F)c(F)c(F)c(F)c1F)S(=O)(=O)c1ccc(F)cc1)c1ccc(C(=O)NO)cc1
IC50 [2]: 20.1 nM
IC50 (Histone deacetylase 3): 213 nM
IC50 (MDA-MB-231): > 25000 nM
IC50 [3]: > 25000 nM
IC50 (Histone deacetylase 8): 224 nM
IC50 (Histone deacetylase 11): > 1000 nM
IC50 (MOLM-13): 14100 nM
IC50 (MV4-11): 3240 nM
IC50 (MDA-MB-468): > 25000 nM
Ki [4]: 573 nM

CC(C)(C)c1ccc(CN(C(=O)CN(Cc2c(F)c(F)c(F)c(F)c2F)S(C)(=O)=O)c2ccc(C(=O)NO)cc2)cc1
IC50 [2]: 27.7 nM
IC50 (Histone deacetylase 3): 213 nM
IC50 (MDA-MB-231): > 12500 nM
IC50 [3]: > 25000 nM
IC50 (Histone deacetylase 8): 133 nM
IC50 (Histone deacetylase 11): > 1000 nM
IC50 (MOLM-13): 2980 nM
IC50 (MV4-11): 1620 nM
IC50 (MDA-MB-468): > 25000 nM
Ki [4]: 1090 nM

COCCc1ccc(OCC(O)CNC(C)C)cc1 (configuration not stated) [METOPROLOL]
efflux ratio at 2 h [5]: 1

CC(C)(C)c1ccc(CNc2ccc(C(=O)NO)cc2)cc1
IC50 [2]: 110 nM
IC50 (Histone deacetylase 3): 503 nM
IC50 (MDA-MB-231): > 25000 nM
IC50 [3]: 16100 nM
IC50 (Histone deacetylase 8): > 1000 nM
IC50 (Histone deacetylase 11): > 1000 nM
IC50 (MOLM-13): 9470 nM
IC50 (MV4-11): 3490 nM
IC50 (MDA-MB-468): > 25000 nM
Ki [4]: 451 nM

CN(C(=O)CN(C)S(=O)(=O)c1ccc(F)cc1)c1ccc(C(=O)NO)cc1
IC50 [2]: 117 nM
IC50 (Histone deacetylase 3): 708 nM
IC50 (Histone deacetylase 8): 573 nM
IC50 (Histone deacetylase 11): > 1000 nM
IC50 (MOLM-13): 24800 nM
IC50 (MV4-11): 14600 nM
Ki [4]: 793 nM

CC(=O)N(Cc1ccc(C(C)(C)C)cc1)c1ccc(C(=O)NO)cc1
IC50 [2]: 71.3 nM
IC50 (Histone deacetylase 3): 276 nM
IC50 (MDA-MB-231): > 25000 nM
IC50 (Histone deacetylase 8): 85.4 nM
IC50 (Histone deacetylase 11): > 1000 nM
IC50 (MOLM-13): 10600 nM
IC50 (MV4-11): 4240 nM
IC50 (MDA-MB-468): > 25000 nM
Ki [4]: 199 nM

CN(CC(=O)N(Cc1ccc(C(C)(C)C)cc1)c1ccc(C(=O)NO)cc1)S(=O)(=O)c1ccc(F)cc1
IC50 [2]: 55.2 nM
IC50 (Histone deacetylase 3): 492 nM
IC50 (MDA-MB-231): > 25000 nM
IC50 [3]: 11800 nM
IC50 (Histone deacetylase 8): 37.9 nM
IC50 (Histone deacetylase 11): 697 nM
IC50 (MOLM-13): 5460 nM
IC50 (MV4-11): 3410 nM
IC50 (MDA-MB-468): > 12500 nM
Ki [4]: 768 nM

C[C@H]1O[C@@H](O[C@H]2[C@@H](O)C[C@H](O[C@H]3[C@@H](O)C[C@H](O[C@H]4CC[C@@]5(C)[C@H](CC[C@@H]6[C@@H]5C[C@@H](O)[C@]5(C)[C@@H](C7=CC(=O)OC7)CC[C@]65O)C4)O[C@@H]3C)O[C@@H]2C)C[C@H](O)[C@@H]1O [DIGOXIN]
efflux ratio at 2 h [5]: 73

O=C(NO)c1ccc(N(Cc2ccccc2)C(=O)CN(Cc2c(F)c(F)c(F)c(F)c2F)S(=O)(=O)c2ccc(F)cc2)cc1
IC50 [2]: 1.49 nM
IC50 (Histone deacetylase 3): 132 nM
IC50 (Histone deacetylase 8): 90.6 nM
IC50 (Histone deacetylase 11): 51.9 nM
IC50 (MOLM-13): 8050 nM
IC50 (MV4-11): 5800 nM
Ki [4]: 1860 nM

CC(C)(C)c1ccc(CN(C(=O)CNS(=O)(=O)c2ccc(F)cc2)c2ccc(C(=O)NO)cc2)cc1
IC50 [2]: 52.8 nM
IC50 (Histone deacetylase 3): 372 nM
IC50 [3]: 10800 nM
IC50 (Histone deacetylase 8): 28 nM
IC50 (Histone deacetylase 11): 665 nM
IC50 (MOLM-13): 5110 nM
IC50 (MV4-11): 3330 nM
IC50 (MDA-MB-468): > 12500 nM
Ki [4]: 293 nM
